Measurements from patent publication US20240076699A1, “BIOSYNTHESIS OF SUBSTITUTED COMPOUNDS AND CANNABINOIDS” (Invizyne Technologies, Inc., priority 2022, published 2024).

Columns and labels:
[1] = target: T1, methionine adenosyltransferase (MAT) from Methanocaldococcusjannaschii (mj) (Methanocaldococcus jannaschii, UniProt Q58605); conditions: 5 mM met or d3-met, 10 μM MAT, 1 h room temperature
T1 sequence (Q58605 1-406): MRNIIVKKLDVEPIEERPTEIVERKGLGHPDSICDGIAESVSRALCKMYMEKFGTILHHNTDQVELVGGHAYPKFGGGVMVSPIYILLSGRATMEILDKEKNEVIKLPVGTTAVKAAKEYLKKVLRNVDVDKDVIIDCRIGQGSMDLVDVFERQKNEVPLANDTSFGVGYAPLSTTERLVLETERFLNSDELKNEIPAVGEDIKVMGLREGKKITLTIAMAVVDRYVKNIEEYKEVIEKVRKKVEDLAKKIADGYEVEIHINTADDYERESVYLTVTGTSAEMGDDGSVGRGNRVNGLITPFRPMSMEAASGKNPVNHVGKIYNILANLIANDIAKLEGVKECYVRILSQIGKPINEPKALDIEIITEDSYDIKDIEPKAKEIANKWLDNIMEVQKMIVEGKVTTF

[2] = target: T2, methionine adenosyltransferase (MAT) from Thermococcus kodakarensis (tk) (Thermococcus kodakarensis, UniProt Q5JF22); conditions: 5 mM met or d3-met, 10 μM MAT, 1 h room temperature
T2 sequence (Q5JF22 1-405): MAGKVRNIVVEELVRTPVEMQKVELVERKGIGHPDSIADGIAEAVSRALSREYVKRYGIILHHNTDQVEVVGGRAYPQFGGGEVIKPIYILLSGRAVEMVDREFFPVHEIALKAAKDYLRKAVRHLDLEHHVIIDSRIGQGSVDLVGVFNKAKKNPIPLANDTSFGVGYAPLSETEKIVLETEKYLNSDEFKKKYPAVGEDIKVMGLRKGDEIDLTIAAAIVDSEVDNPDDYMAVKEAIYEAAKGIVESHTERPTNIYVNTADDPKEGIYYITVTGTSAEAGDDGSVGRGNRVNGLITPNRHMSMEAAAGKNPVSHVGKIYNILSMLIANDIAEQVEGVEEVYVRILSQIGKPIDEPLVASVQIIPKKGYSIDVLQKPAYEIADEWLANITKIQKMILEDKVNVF

[3] = Solubility in nonane overlay versus water; type: physicochemical
[4] = nLC-MS/MS of CBGA and dCBGA samples after one hour; type: in vitro ADME
Description: (§1) Additional samples were subjected to nano-scale liquid chromatographic tandem mass spectrometry (nLC-MS/MS). Samples were prepared using 2 μL of standard and 198 μL of 50:50 water:acetonitrile in 0.1% formic acid. A 1 μL sample was injected.

[5] = target: Bovine serum albumin (BSA) (Bos taurus, UniProt P02769); assay: BSA binding seen during extraction; conditions: reaction mixture extraction
Chain of Bovine serum albumin (BSA) (P02769 25-607): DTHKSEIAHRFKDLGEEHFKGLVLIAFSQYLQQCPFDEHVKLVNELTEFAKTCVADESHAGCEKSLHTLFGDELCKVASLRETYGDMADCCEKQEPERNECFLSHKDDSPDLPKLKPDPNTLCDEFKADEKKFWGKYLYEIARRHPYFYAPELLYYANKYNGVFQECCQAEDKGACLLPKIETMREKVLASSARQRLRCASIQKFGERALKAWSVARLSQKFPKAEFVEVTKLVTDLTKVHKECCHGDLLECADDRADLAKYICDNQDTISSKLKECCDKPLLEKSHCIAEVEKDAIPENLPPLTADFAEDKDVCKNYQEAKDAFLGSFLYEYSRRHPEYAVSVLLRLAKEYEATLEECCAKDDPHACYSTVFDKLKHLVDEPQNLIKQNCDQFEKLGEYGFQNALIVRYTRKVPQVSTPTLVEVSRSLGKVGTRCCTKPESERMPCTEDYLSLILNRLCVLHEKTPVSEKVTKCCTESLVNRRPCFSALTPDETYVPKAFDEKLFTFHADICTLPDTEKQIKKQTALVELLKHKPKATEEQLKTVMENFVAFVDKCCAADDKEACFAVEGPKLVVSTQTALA
Text: In one embodiment, upon formation of the THCA compound of the present invention, the compound is purified to isolate the produced THCA. The extraction of CBGA and THCA into ethylacetate formed an emulsion which could only be partially broken with the addition of hexane. Bovine serum albumin (BSA) binds both CBGA and THCA tightly and thus not all of the product is recoverable in the organic phase of the purification process. However, acid precipitation of the BSA with the addition of 1% HCl allows for the denaturation of BSA and subsequent unbinding of the CBGA and THCA to allow extraction and purification. In one embodiment, the HCl is added directly to the reaction mixture, which is then incubated for about 10 minutes to assure full denaturation of BSA. The mixture is then centrifuged for about 30 minutes at 4000 g. After centrifuging the mixture, the CBGA and THCA coprecipitate into pelleted form. The pellet is then washed with water until the water reaches a neutral pH. The pellet is then resuspended in methanol using vigorous vortexing. The methanol mixture was rotavapped over a water bath at 40° C., and the resulting oil was resuspended in ethanol. The THCA then precipitates as a brown oil. The reaction mixture is then filtered and washed with water and then resuspended in hexane. The hexane was then rotavapped to remove mass added to the product by excess […]. […]

[6] = results in an inactive metabolite; cited from earlier work
[7] = nLC-MS/MS comparison of CBGA and dCBGA after one hour (degradation); type: in vitro ADME; conditions: matrix not stated
Description: as §1
Table 10 compares nLC-MS/MS data for the CBGA samples and dCBGA samples after one hour.
FIG. 26 illustrates a graph comparing CBGA and dCBGA. Sample 1, Sample 2, and Sample 3 are shown left to right for both CBGA and dCBGA.

For `[2H]C([2H])([2H])SCC[C@H](N)C(=O)O` [d3-met, d3-L-methionine], the “MAT activity on substrate (Pi released per hour)” value [1] was “equally active” and the “MAT activity on substrate (Pi released per hour)” value [2] was “equally active”.
For `CCCCCc1cc(O)c(C/C=C(\C)CCC=C(C)C)c(O)c1C(=O)O` [CBGA, cannabigerolic acid, reference compound], the “solubility in water compared with nonane” value [3] was “more soluble in water than nonane”, the “degradation after one hour, CBGA compared with dCBGA” value [4] was “CBGA is significantly more degraded after one hour than dCBGA” and the “binding by BSA” value [5] was “tightly”.
For `CCCCCc1cc(O)c(C/C=C(\C)CCC=C(C)C)c(O)c1C(=O)O` [dCBGA, d11-cannabigerolic acid], the “degradation after one hour, CBGA compared with dCBGA” value [4] was “CBGA is significantly more degraded after one hour than dCBGA”.
In the case of `CCCCCc1cc2c(c(O)c1C(=O)O)[C@@H]1C=C(C)CC[C@H]1C(C)(C)O2` [THCA, tetrahydrocannabinolic acid], the “binding by BSA” value [5] is reported as “tightly”.
In the case of `C=C(C)[C@@H]1CCC(C)=C[C@H]1c1c(O)cc(CCCCC)cc1O` [CBD, cannabidiol], the “metabolites with cleavage of the 5′ pentyl tail” value [6] is given as about 25%.
With `CCCCCc1cc(O)c(C/C=C(\C)CCC=C(C)C)c(O)c1C(=O)O` [CBGA, cannabigerolic acid] the “degradation after one hour compared with dCBGA” value [7] was “significantly more degraded after one hour than dCBGA”.
For `CSCC[C@H](N)C(=O)O` [met, methionine, reference compound], the “MAT activity on substrate (Pi released per hour)” value [1] was “equally active” and the “MAT activity on substrate (Pi released per hour)” value [2] was “equally active”.
In the case of `CCCc1cc(O)c(C/C=C(\C)CCC=C(C)C)c(O)c1C(=O)O` [CBGVA, cannabierovarinic acid], the solubility in nonane [3] is reported as “limited solubility”.
